Data reported in ChEMBL document CHEMBL4130493, “An insight into the biological activities of heterocyclic-fatty acid hybrid molecules” (Eur J Med Chem, 2017).
≈ marks a conversion by molar mass, not a printed value.

Experiments:
Pseudomonas aeruginosa = assay: Antibacterial activity against Pseudomonas aeruginosa MTCC 2453 incubated for 24 hrs by serial two-fold dilution method; type: functional; conditions: MTCC 2453, 24 h
Escherichia coli [1] = assay: Antibacterial activity against Escherichia coli MTCC 40 incubated for 24 hrs by serial two-fold dilution method; type: functional; conditions: MTCC 40, 24 h
Candida albicans [2] = assay: Antifungal activity against Candida albicans IOA-109 at 100 ug/mL incubated for 18 to 48 hrs by agar disc diffusion method; type: functional; conditions: read-out: DIZ
Staphylococcus aureus = assay: Antibacterial activity against Staphylococcus aureus MSSA 22 at 100 ug/mL incubated for 24 hrs by filter paper disc method; type: functional; conditions: MSSA 22, 24 h, read-out: DIZ
Bacillus subtilis = assay: Antibacterial activity against Bacillus subtilis ATCC 6051 at 100 ug/mL incubated for 24 hrs by filter paper disc method; type: functional; conditions: ATCC 6051, 24 h, read-out: DIZ
Escherichia coli [3] = assay: Antibacterial activity against Escherichia coli K-12 at 100 ug/mL incubated for 24 hrs by filter paper disc method; type: functional; conditions: K-12, 24 h, read-out: DIZ
Salmonella typhimurium = assay: Antibacterial activity against Salmonella typhimurium MTCC98 at 100 ug/mL incubated for 24 hrs by filter paper disc method; type: functional, Salmonella enterica subsp. enterica serovar Typhimurium; conditions: Salmonella enterica, MTCC98, 24 h; read-out: DIZ
A549 = assay: Cytotoxicity in human A549 cells by SRB assay; type: functional; conditions: read-out: TC50 (the source's name)
Candida albicans [4] = assay: Antifungal activity against Candida albicans IOA-109 at 50 ug/disc incubated for 5 to 6 days by disc diffusion method; type: functional; conditions: read-out: DIZ
Plasmodium falciparum = assay: Antimalarial activity against Plasmodium falciparum infected in erythrocytes assessed as inhibition of increase in parasite density after 72 hrs; type: functional, organism-based

SMILES | MIC (Pseudomonas aeruginosa) [µg/mL] | MIC (Escherichia coli [1]) [µg/mL] | zone of inhibition at 100 µg/mL (Candida albicans [2]) [mm] | zone of inhibition at 100 µg/mL (Staphylococcus aureus) [mm] | zone of inhibition at 100 µg/mL (Bacillus subtilis) [mm] | zone of inhibition at 100 µg/mL (Escherichia coli [3]) [mm] | zone of inhibition at 100 µg/mL (Salmonella typhimurium) [mm] | further results
CCCCCCCCCCCCCC(=O)NN1C(=O)CSC1c1ccc(F)cc1 (stereo not drawn) | 0.35 to 0.7 (≈ 0.828 to 1.66 µM) | 0.35 to 0.7 (≈ 0.828 to 1.66 µM) | – | – | – | – | – | –
CCCCCCCCCCCCCCCCCc1nc(-c2cccc(O)c2)n[nH]1 | – | – | 17.2 to 19 | 13.1 to 22.2 | 13.1 to 22.2 | 13.1 to 22.2 | 13.1 to 22.2 | –
CCCCCCCCCCCCCCCC(=O)NN1C(=O)CSC1c1ccc(Cl)cc1 (stereo not drawn) | 0.35 to 0.7 (≈ 0.749 to 1.5 µM) | 0.35 to 0.7 (≈ 0.749 to 1.5 µM) | – | – | – | – | – | –
CCCCCCCCCCCCCCCCCc1nnc(S)n1N | – | – | – | – | – | – | – | CC50 (A549): 282 nM
CCCCCCCCCCCCCCCCCc1nc(-c2ccc(O)c(O)c2)n[nH]1 | – | – | 17.2 to 19 | 13.1 to 22.2 | 13.1 to 22.2 | 13.1 to 22.2 | 13.1 to 22.2 | –
CCCCCCCCCCCCCC(=O)NN1C(=O)CSC1c1ccccc1 (stereo not drawn) | 0.35 to 0.7 (≈ 0.865 to 1.73 µM) | 0.35 to 0.7 (≈ 0.865 to 1.73 µM) | – | – | – | – | – | –
CCCCCCCCCCCCCCCC(=O)NN1C(=O)CSC1c1ccc(F)cc1 (stereo not drawn) | 0.35 to 0.7 (≈ 0.777 to 1.55 µM) | 0.35 to 0.7 (≈ 0.777 to 1.55 µM) | – | – | – | – | – | –
CCCCCCCCCCCCCCCC(=O)NN1C(=O)CSC1c1ccccc1 (stereo not drawn) | 0.35 to 0.7 (≈ 0.809 to 1.62 µM) | 0.35 to 0.7 (≈ 0.809 to 1.62 µM) | – | – | – | – | – | –
CCCCCCC(O)C/C=C\CCCCCCCc1nc(-c2ccccc2)n[nH]1 (stereo not drawn) | – | – | 17.2 to 19 | 13.1 to 22.2 | 13.1 to 22.2 | 13.1 to 22.2 | 13.1 to 22.2 | –
CC/C=C\C/C=C\C/C=C\CCCCCCCc1nnc(S)n1N | – | – | – | – | – | – | – | CC50 (A549): 264 nM
CCCCC/C=C\CCC(O)CCCCCCCc1nc(-c2ccc(O)c(O)c2)n[nH]1 (stereo not drawn) | – | – | 17.2 to 19 | 13.1 to 22.2 | 13.1 to 22.2 | 13.1 to 22.2 | 13.1 to 22.2 | –
C=CCCCCCCCCc1nc(-c2ccccc2)n[nH]1 | – | – | 17.2 to 19 | 13.1 to 22.2 | 13.1 to 22.2 | 13.1 to 22.2 | 13.1 to 22.2 | –
CCCCCCCC(O)CC/C=C\CCCCCC(=O)n1nnc2ccccc21 (stereo not drawn) | – | – | – | – | – | – | – | zone of inhibition at 50 µg/disc (Candida albicans [4]): 16 to 20 mm
CCCCCCC(O)C/C=C\CCCCCCCc1nc(-c2cccc(O)c2)n[nH]1 (stereo not drawn) | – | – | 17.2 to 19 | 13.1 to 22.2 | 13.1 to 22.2 | 13.1 to 22.2 | 13.1 to 22.2 | –
CCCCCCCCCCCCCC(=O)NN1C(=O)CSC1c1ccc(OC)cc1 (stereo not drawn) | 0.35 to 0.7 (≈ 0.805 to 1.61 µM) | 0.35 to 0.7 (≈ 0.805 to 1.61 µM) | – | – | – | – | – | –
C=C[C@H]1CN2CC[C@H]1C[C@H]2[C@H](O/C=C/C=C/CCCCCCCCCCCCCC)c1ccnc2ccc(OC)cc12 | – | – | – | – | – | – | – | EC50 (Plasmodium falciparum): 7 to 20 µM
CCCCCCCCCCCCCCCCCc1nnc(S)o1 | – | – | – | – | – | – | – | CC50 (A549): 143 nM
CCCCCCCCCCCCCCCC(=O)NN1C(=O)CSC1c1ccc(OC)cc1 (stereo not drawn) | 0.35 to 0.7 (≈ 0.756 to 1.51 µM) | 0.35 to 0.7 (≈ 0.756 to 1.51 µM) | – | – | – | – | – | –
CCCCCCCCCCCCCC(=O)NN1C(=O)CSC1c1ccc(Br)cc1 (stereo not drawn) | 0.35 to 0.7 (≈ 0.724 to 1.45 µM) | 0.35 to 0.7 (≈ 0.724 to 1.45 µM) | – | – | – | – | – | –
C=C[C@H]1CN2CC[C@H]1C[C@H]2[C@H](O/C=C/C=C/C=C/C=C/C=C/CCCCCCCCCC)c1ccnc2ccc(OC)cc12 | – | – | – | – | – | – | – | EC50 (Plasmodium falciparum): 7 to 20 µM
C=CCCCCCCCCc1nc(-c2cccc(O)c2)n[nH]1 | – | – | 17.2 to 19 | 13.1 to 22.2 | 13.1 to 22.2 | 13.1 to 22.2 | 13.1 to 22.2 | –
C=C[C@H]1CN2CC[C@H]1C[C@H]2[C@H](OCCCCCCCCCCCC)c1ccnc2ccc(OC)cc12 | – | – | – | – | – | – | – | EC50 (Plasmodium falciparum): 7 to 20 µM
